Experimental data: patent publication US20110318375A1, “Immunomodulatory Therapeutic Agents” (priority 2009, published 2011)

Legend:
Cytokine 12 Panel [1] = experiment: Cytokine 12 panel after oral peptide preparation taken daily for two weeks; type: in vivo, human; conditions: Pre: prior to the IV dose, 4 weeks after oral dosing
Description: Peptide was suspended in an appropriate medium and a healthy volunteer took the preparation daily for two weeks, drawing blood for a cytokine 12 panel every five days. Due to the size of the molecules absorption from the mucosal route seemed unlikely, and the rapid digestion of peptides in the stomach would eliminate their efficacy in a true oral route. This same healthy volunteer had lab work drawn right before receiving an IV dose of synthetic Fibrinopeptide A. The IV dose was expected to have a more profound therapeutic effect, since treatment was simulating a normal intravascular biologic process. […] (Table 3). [table]

mouse antibody IgE = conditions: cited from earlier work
[2] = tested on: Experimental Allergic Encephalomyelitis (EAE); experiment: Acute Experimental Allergic Encephalomyelitis mouse model; type: in vivo, mice; conditions: daily, subcutaneous; recovery after day 22, worsened on days 27 and 28; p<0.1
Description: The carboxy terminus of activated Fibrinopeptide A was considered to be the active portion of the peptide, the carboxy terminus was PEGylate (addition of Poly Ethylene Glycol). This molecule was used to perform an EAE study. This study was designed to mimic the study done by Ruhenstroth-Bauer in 1981 utilizing two of these peptides, and showing some albeit mild benefit. The synthetic PEGylated peptide was expected to perform considerably better than the non-PEGylated peptide. Synthetic non-PEGylated peptide A was used as a positive control to compare the PEGylated verses non-PEGylated peptides. The medications were administered subcutaneously, due to this route having some efficacy in the cytokine profiles.
Test article 2 (PEGylated peptide) dosed daily, every 3 days and weekly never even approached statistically significant benefit.
During the first 22 days of the study EAE development in mice treated with test article 1 (daily non-PEGylated peptide A) was very similar to the vehicle-treated mice. […] Disease worsened in test article 1-treated mice on days 27 and 28 and became very similar to disease severity to the mice in the vehicle-treated group.

Cytokine 12 Panel [3] = experiment: Cytokine 12 panel, oral daily dosing with 3 mg Fibrinopeptide A (Table 5); type: in vivo, human; design: IL-10 / TNF-α / IL-2 / IL-12: unit not given here; conditions: for IFN-γ / IL-4 / IL-5 / IL-6 / IL-8 / IL-13: nl: 0-5; for IL-12: nl: 0-6; for IL-2: nl: 0-12; for IL-10: nl: 0-18; for TNF-α: nl: 0-22; for IL-1β: nl: 0-36; for IL-2R: nl: 0-1033
Description: [table] […] One of these patients was the same patient previously utilized, while the other was relatively neve to any previous Fibrinopeptide A treatment. The patient had taken two doses orally approximately seven weeks prior to this treatment, no lab work had been obtained with this prior dosing. […] Note the response in the IL-10 and IL-1b in this patient similar to the other patients. However, this patient return back toward baseline values much more rapidly than the other patients, accentuating the variability expected in this type of response from one patient to another. This also validates the efficacy of oral administration to achieve an anti-inflammatory/immunomodulatory benefit.

ADSGEGDFLAEGGGV (listed as Homo sapiens) [Fibrinopeptide A]
IFN-γ (Cytokine 12 Panel [1]; nl: 0-5): <5
IL-4 (Cytokine 12 Panel [1]; nl: 0-5): <5
IL-5 (Cytokine 12 Panel [1]; nl: 0-5): <5
IL-6 (Cytokine 12 Panel [1]; nl: 0-5): 13
IL-8 (Cytokine 12 Panel [1]; nl: 0-5): <5
IL-12 (Cytokine 12 Panel [1]; nl: 0-6): <5
IL-2 (Cytokine 12 Panel [1]; nl: 0-12): <5
IL-10 (Cytokine 12 Panel [1]; nl: 0-18): 96
TNF-α (Cytokine 12 Panel [1]; nl: 0-22): <5
IL-1β (Cytokine 12 Panel [1]; nl: 0-36): 52
IL-2R (Cytokine 12 Panel [1]; nl: 0-1033): 550
deglycosylation of IgE (mouse antibody IgE): deglycosylates mouse antibody IgE
difference in disease severity versus vehicle-treated mice [2]: did not reach statistical significance
IFN-γ (Cytokine 12 Panel [3]; Off 1 Week): 5
IL-4 (Cytokine 12 Panel [3]; Off 1 Week): <5
IL-5 (Cytokine 12 Panel [3]; Off 1 Week): 5
IL-6 (Cytokine 12 Panel [3]; Off 1 Week): 5
IL-8 (Cytokine 12 Panel [3]; Off 1 Week): 8
IL-13 (Cytokine 12 Panel [3]; Off 1 Week): 8
IL-12 (Cytokine 12 Panel [3]; Off 1 Week): 6
IL-2 (Cytokine 12 Panel [3]; Off 1 Week): 6
IL-10 (Cytokine 12 Panel [3]; Off 1 Week): 28
TNF-α (Cytokine 12 Panel [3]; Off 1 Week): <5
IL-1β (Cytokine 12 Panel [3]; Off 1 Week): <5
IL-2R (Cytokine 12 Panel [3]; Off 1 Week): 147
elevation of Interleukin-13 (Cytokine 12 Panel [3]; giving just Fibrinopeptide A): does not result in an elevation
IFN-γ (Cytokine 12 Panel [3]; oral daily 3 mg, 1 Week): <5
IL-4 (Cytokine 12 Panel [3]; oral daily 3 mg, 1 Week): <5
IL-5 (Cytokine 12 Panel [3]; oral daily 3 mg, 1 Week): <5
IL-6 (Cytokine 12 Panel [3]; oral daily 3 mg, 1 Week): <5
IL-8 (Cytokine 12 Panel [3]; oral daily 3 mg, 1 Week): <5
IL-13 (Cytokine 12 Panel [3]; oral daily 3 mg, 1 Week): <5
IL-12 (Cytokine 12 Panel [3]; oral daily 3 mg, 1 Week): <5
IL-2 (Cytokine 12 Panel [3]; oral daily 3 mg, 1 Week): <5
IL-10 (Cytokine 12 Panel [3]; oral daily 3 mg, 1 Week): 137
TNF-α (Cytokine 12 Panel [3]; oral daily 3 mg, 1 Week): <5
IL-1β (Cytokine 12 Panel [3]; oral daily 3 mg, 1 Week): 30
IL-2R (Cytokine 12 Panel [3]; oral daily 3 mg, 1 Week): 423
